Reference: BindingDB's records for PubMed 28813519 (Erasmus University Medical Center)
pIC50: −log10 of the molar value.

What was measured:
[1] = Inhibition of BRD4 in mouse MPNST cells assessed as reduction in cell viability incubated for 72 hrs by SRB assay
[2] = Inhibition of BRD4 in mouse primary skin-derived precursors (Nf1-/-, P53-/-) assessed as reduction in cell viability incubated for 72 hrs by SRB assay

## Cc1sc2c(c1C)C(c1ccc(Cl)cc1)=N[C@@H](CC(=O)OC(C)(C)C)c1nnc(C)n1-2
[1]
  pIC50: > 6.40
[2]
  pIC50: > 6.40
